Reference: paper PMC9459403, “New inhibitors of cathepsin V impair tumor cell proliferation and elastin degradation and increase immune cell cytotoxicity” (Computational and Structural Biotechnology Journal, 2022)
Marks after values point to notes of the source that are not given here.

Assays:
Assay type in all cases: biochemical
[1] = target: T1, human recombinant cathepsin L (Homo sapiens, UniProt P07711); experiment: Determination of relative inhibition, substrate Z-Phe-Arg-AMC; settings: inhibitor 50 μM; substrate 2 μM; mean ± SD (n = 2); read-out: Cathepsin L Ri (%) relative inhibition
T1 construct: made in house; host or cells: Escherichia coli
Protocol: (§1) Human recombinant cathepsin V was expressed in Pichia Pastoris, and human recombinant cathepsin L was expressed in Escherichia coli, as reported, [51]. To determine the activities of cathepsins V and L, 100 mM acetate buffer (pH 5.5), containing 0.1 % PEG 8000 (Sigma-Aldrich, St. Louis, MO, USA), 5 mM cysteine, and 1.5 mM EDTA was used. Prior to the assay, the enzyme was activated in the assay buffer for 5 min at 37 °C.
(§2) The effect of the inhibitors on cathepsin V and L activity was determined using the substrate Z-Phe-Arg-AMC (Bachem, Bubendorf, Switzerland). The reaction was initiated by adding 90 μL of the activated enzyme (final concentration 2.5 ng/mL and 0.02 nM for cathepsins V and L, respectively) to the wells of a black microtiter plate containing 5 μL of substrate (with a final concentration 2 μM) and 5 μL of inhibitor (with a final concentration of 50 μM). The formation of fluorescent degradation products during the reaction was monitored continuously at 460 nm ± 10 nm with excitation at 380 nm ± 20 nm at 37 °C on a Tecan Infinite M1000 (Mannedorf, Switzerland) spectrofluorometer. All assay mixtures contained 5 % (v/v) DMSO. To prevent false-positive inhibition due to the formation of compound aggregates, 0.01 % Triton X-100 was used. All measurements were performed in triplicate and repeated at least twice. Relative inhibition was calculated using the following equation: relative inhibition (%) = 100(1- vi/vo), where vi and vo denote the reaction velocities in the presence and absence of the inhibitor, respectively.

[2] = target: T2, Cathepsin V (Homo sapiens, UniProt O60911); experiment: as above; settings: inhibitor 50 μM; substrate 2 μM; mean ± SD (n = 2); read-out: Cathepsin V Ri (%) relative inhibition
T2 construct: made in house; host or cells: Pichia pastoris
Protocol: as §1, §2

[3] = target: T1, human recombinant cathepsin L; experiment: Determination of Ki values and mode of inhibition; settings: mean ± SD (n = 2)
Protocol: as §1
(§3) Inhibition constants were calculated from reaction velocities measured at three substrate concentrations (0.5, 1, and 4 μM) in the presence of inhibitors at seven concentrations (0, 20, 40, 60, 80, 100, and 200 µM). The reaction was initiated by adding 90 μL of enzyme at final concentrations of 2.5 ng/mL and 0.02 nM for cathepsins V and L, respectively, to the wells of a black microtiter plate containing 5 μL of substrate and 5 μL of inhibitor. To evaluate cathepsin V and L activity, the substrate Z-Phe-Arg-AMC was used. The formation of the fluorescent degradation products was monitored as described above. All assay mixtures contained 5 % (v/v) DMSO. All measurements were performed in duplicates and repeated at least twice. The SigmaPlot® 12, Enzyme Kinetics Module™ 1.3 was used to calculate Ki values.

[4] = target: T2, Cathepsin V; experiment: Determination of Ki values and mode of inhibition; settings: mean ± SD (n = 2)
Protocol: as §1, §3

[5] = target: T2, Cathepsin V; experiment: Determination of binding reversibility (dilution method); settings: inhibitor 100 μM, cathepsin V 500 ng/ml
Protocol: Binding reversibility was determined according to the dilution method, which measures the recovery of enzymatic activity after rapid dilution of the enzyme-inhibitor complex. Cathepsin V (500 ng/ml) was incubated in the assay buffer with the inhibitor (100 μM). Half of the reaction mixture was immediately diluted 100-fold with the assay buffer and added to the wells of a black microplate containing 5 μL of substrate (at a final concentration of 2 μM), and the activity was measured. The other half of the reaction mixture was incubated for 2 h before it was diluted 100-fold, and then the activity was measured. The assay was performed in triplicates and repeated at least two times.

T2 sequence (O60911 114-334): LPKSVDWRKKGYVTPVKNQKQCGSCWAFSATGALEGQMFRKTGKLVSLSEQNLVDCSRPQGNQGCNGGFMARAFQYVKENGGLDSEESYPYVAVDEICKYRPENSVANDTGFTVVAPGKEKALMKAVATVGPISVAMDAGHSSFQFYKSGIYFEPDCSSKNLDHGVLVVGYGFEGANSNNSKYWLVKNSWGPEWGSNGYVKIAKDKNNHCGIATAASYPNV
T1 sequence (P07711 114-333): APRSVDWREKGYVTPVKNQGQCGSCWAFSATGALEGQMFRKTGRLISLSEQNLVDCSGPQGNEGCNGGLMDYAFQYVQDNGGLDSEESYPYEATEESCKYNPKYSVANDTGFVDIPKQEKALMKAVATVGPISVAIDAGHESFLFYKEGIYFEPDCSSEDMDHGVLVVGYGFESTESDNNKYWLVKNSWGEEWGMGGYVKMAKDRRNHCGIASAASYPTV

Compound | inhibition at 50 µM [1] | inhibition at 50 µM [2] | further results
O=C(Nc1cc(Cl)ccc1Cl)c1cnc2n(c1=O)CCS2 [Compound 1] | 4.8 ± 3.9% | -5.4 ± 2.4% | 
Cc1ccc(Cl)c2sc(NC(=O)c3ccc(S(=O)(=O)N4CCc5ccccc5C4)cc3)nc12 [Compound 2] | 20 ± 2.2% | 16.4 ± 0.3% | Ki [3]: 162 ± 1.8 µM
Cc1cc(C)c2sc(NC(=O)c3ccc(S(=O)(=O)N4CCc5ccccc5C4)cc3)nc2c1 [Compound 3] | 147 ± 88.7% |  | 
COc1ccc(NC(C)=O)cc1NC(=O)c1n[nH]c2ccccc12 [Compound 6] | 40.3 ± 4.5% | > 20% | Ki [3]: 635 ± 167 µM; Ki [4]: 371 ± 86.1 µM
O=C(NCCN1CCN(c2ccc(Cl)cc2)CC1)[C@H]1CC(=O)N(c2ccccc2)C1 [Compound 8] | -4.4 ± 2.1% | -20.3 ± 3.5% | 
COc1ccc(-c2cn3c(CCC(=O)Nc4nc5ccccc5s4)csc3n2)cc1 [Compound 9] | 17.5 ± 5.3% | 18.9 ± 1.3% | 
O=C(NCc1cccc2ccccc12)Nc1ccc2c(c1)CCCN2C(=O)c1cccs1 [Compound 10] | 21.5 ± 1.2% | 17.8 ± 3.3% | 
Brc1ccccc1CNc1ncncc1-c1nc(-c2ccsc2)no1 [Compound 11] | 6.3 ± 2.6% | -3.1 ± 4.6% | 
CC1Oc2ccccc2OC1C(=O)NCC#CCN1CCc2ccccc2C1 (stereo not shown) [Compound 12] | 15.6 ± 1.2% | -9.5 ± 9.2% | 
O=C(Nc1ccc(F)cc1)OC1CCCC(NC(=O)c2c(F)cccc2F)C1 (stereo not shown) [Compound 13] | 13.4 ± 1.4% | 7.5 ± 5% | 
O=C(NC[C@H]1CCCN1c1ccccc1)c1cccnc1 [Compound 14] | 13.1 ± 2.6% | 7.8 ± 3.1% | 
Cc1c(C(=O)N2CC(N3CCc4ccccc4C3)C2)cnn1-c1ccccc1 [Compound 15] | -5.4 ± 7.3% | -27.6 ± 9.1% | 
Cc1nccc(O[C@H]2CCN(S(=O)(=O)/C=C/c3ccccc3)C2)n1 [Compound 16] | -1 ± 4.8% | -6.5 ± 0.9% | 
Cc1cc(CNC(=O)Cc2cccc3ccccc23)ncn1 [Compound 17] | 9.4 ± 9.5% | -2.4 ± 5.6% | 
Cc1noc(-c2cccn3c(CNC(=O)c4cc(-c5cccs5)n[nH]4)nnc23)n1 [Compound 18] | 13 ± 7.9% | 6.7 ± 0.03% | 
O=C(NCc1nnc2c(C(F)(F)F)cccn12)c1cc(-c2cccs2)n[nH]1 [Compound 19] | 17.8 ± 13.7% | 3.8 ± 3.5% | 
O=C(NCc1nnc2c(C(F)(F)F)cccn12)c1cc2cc(Cl)ccc2[nH]1 [Compound 20] | 14.5 ± 2.4% | 16.9 ± 0.6% | 
COC(=O)Cc1c[nH]c2ccc(OCC3CO3)cc12 (stereo not shown) [Compound 21] | 15.3 ± 2.9% | > 20% | Ki [3]: 236 ± 10.3 µM; Ki [4]: 159 ± 32.8 µM
COc1ccc(C(=O)C2OC2c2cc3ccccc3o2)c(OCc2ccccc2)c1 (stereo not shown) [Compound 22] | 11.1 ± 4.4% | -7.2 ± 7.7% | 
O=c1cc(-c2ccccc2)c2cc(Cl)c(OCC3CO3)cc2o1 (stereo not shown) [Compound 23] | 11.9 ± 6.2% | -2.9 ± 1.8% | 
O=C(c1cc(F)ccc1OCc1ccccc1)C1OC1c1ccc2c(c1)OCCO2 (stereo not shown) [Compound 24] | 17.7 ± 11.7% | 0.8 ± 3.3% | 
O=C(c1cc(Br)ccc1OCc1ccccc1)C1OC1c1cc2ccccc2o1 (stereo not shown) [Compound 26] | 10.6 ± 4.5% | 6.3 ± 4.6% | Ki [3]: 375 ± 20.5 µM
O=C(N[C@H]1CCCN(Cc2ccccc2)C1)c1ccc(CN2CCCC2)o1 [Compound 28] | -4.6 ± 5.2% | 1.1 ± 9% | 

Compound | inhibition at 50 µM [1] | inhibition at 50 µM [2] | further results
O=C(CN1Cc2ccccc2C1)NC1CCCN(Cc2cccc(O)c2)C1 (stereo not shown) [Compound 29] | -2.4 ± 2% | -0.5 ± 1.2% | 
CN(C)c1ccc(CC(=O)NC2CCCN(Cc3cccnc3)C2)cc1 (stereo not shown) [Compound 30] | -1.2 ± 0.3% | -2 ± 3.3% | 
O=C(Nc1nc2c(s1)CN(Cc1ccccc1)CC2)c1ccc(-c2ccccc2)cc1 [Compound 31] | 20.9 ± 7.2% | 29.2 ± 7% | 
O=C(Nc1nc2c(s1)CN(Cc1ccccc1)CC2)c1ccccc1 [Compound 32] | 4.7 ± 3.2% | 6.9 ± 2.2% | 
CCOC(=O)N1CCC(NC(=O)NCc2ccc(OC)cc2)CC1 [Compound 33] | 3.4 ± 4.4% | -1.6 ± 6.5% | 
CC(=O)N1CCc2cc(C(=O)C(C)OC(=O)CCc3nc(-c4cccs4)no3)ccc21 (stereo not shown) [Compound 34] | -3 ± 0.5% |  | 
O=C(NCC(O)CN1CCOCC1)c1cc2cc(Br)ccc2[nH]1 (stereo not shown) [Compound 35] | 12 ± 1.3% | 16.6 ± 8.4% | 
COc1ccc(CNC(=O)N2CCC(C(N)=O)CC2)cc1 [Compound 36] | -0.6 ± 1.7% | 15.2 ± 10% | 
Cc1[nH]c(C(=O)NCCCc2nc3ccccc3[nH]2)c(C)c1C(=O)OC(C)C [Compound 37] | -2.1 ± 0.7% | -3.4 ± 2.9% | 
CNC(=O)C1(COC)CCCN1C(=O)CN1CCOCC1=O (stereo not shown) [Compound 38] | 2.3 ± 3.1% | 7.9 ± 0.4% | 
Cc1nc(C2OC2C(=O)c2ccccc2OCc2ccccc2)cs1 (stereo not shown) [Compound 39] | 6.1 ± 0.7% | 17.1 ± 7.2% | Cathepsin L Ki′ (µM) [3]: 725.7 ± 142.3^e µM; Ki [3]: 726 ± 142 µM; Ki [4]: 403 ± 79.7 µM
O=C(NCc1ccc(F)cc1)NCC1CCN(C(=O)Oc2ccccc2)CC1 [Compound 41] | 4.2 ± 0.9% | 17.7 ± 6.1% | Cathepsin L Ki (µM) [3]: n.i.^g; Cathepsin L Ki′ (µM) [3]: n.i.^g; Cathepsin V Ki′ (µM) [4]: 612.5 ± 23.9^e µM; Ki [4]: 612 ± 23.9 µM
COCCN1CCC(CNC(=O)NCc2ccc(OC)cc2)CC1 [Compound 43] | -0.4 ± 2.5% | 5.2 ± 1.8% | 
COC(=O)N1CCC(CNC(=O)NCc2cccc3ccccc23)CC1 [Compound 44] | 1.1 ± 4.9% | 11.1 ± 11.5% | 
COC(=O)N1CCC(CNC(=O)NC(c2ccccc2)c2ccccc2)CC1 [Compound 45] | 3.3 ± 2.4% | 9.2 ± 6.4% | 
COc1ccc(CNC(=O)NCC2CCN(C(=O)N(C)C)CC2)cc1 [Compound 46] | 4.3 ± 4.1% | 12.1 ± 9.8% | 
COc1ccc(CNC(=O)NCC2CCN(C(=O)Oc3ccccc3)CC2)cc1 [Compound 47] | 4.4 ± 4.6% | 9.5 ± 2.5% | 
O=C(NCC1CCN(C(=O)Oc2ccccc2)CC1)c1ccccc1 [Compound 48] | 5.7 ± 3.6% | 20.4 ± 14.5% | Ki [3]: 1190 ± 357 µM; Ki [4]: 1190 ± 468 µM
Cc1cc(OCc2ccccc2)c(C(=O)C2OC2c2csc(-c3ccccc3)n2)cc1C (stereo not shown) [Compound 49] | 12.9 ± 0.5% | 22.9 ± 1% | Ki [3]: 546 ± 114 µM; Ki [4]: 303 ± 11.3 µM
COc1ccc(CNC(=O)N2CCC(C(=O)N3CCCCC3)CC2)cc1 [Compound 50] | 13.8 ± 0.5% | -2.9 ± 4% | 
O=C(NC(Cc1ccccc1)C(=O)O)C1CCC(CNC(=O)C2Cc3ccccc3CN2)CC1 (stereo not shown) [Compound 51] | -4 ± 7.3% | -9.8 ± 5.8% | 
COC(=O)Cc1c[nH]c2ccc(OCC(O)CNC(C)C)cc12 (stereo not shown) [Compound 52] | -0.7 ± 1.5% | 0.3 ± 8.8% | 
CC(C)C[C@H](NC(=O)[C@H]1O[C@@H]1C(=O)O)C(=O)NCCCCN=C(N)N [Compound E-64, reference compound] |  |  | binding reversibility: cathepsin V activity after 2 h incubation and 100-fold rapid dilution [5]: remained inhibited
